Laboratory results: US20050032904A1, “Composition and use of allylamine derivatives” (priority 2003, published 2005)

Legend:
Test in all cases: Western blot of cell cycle regulatory proteins
Format in all cases: cell-based, human
[1] = system: cell cycle regulatory proteins in HT 29 cells; settings: TB 60-150 μM, 15 h; dose-dependent
Description: (§1) To further test this hypothesis, the dose effects of TB on the levels of cell cycle regulatory protein were conducted in four different human cancer cell lines, COLO 205 (p53 wild type), HT 29 (p53 […] mutant), Hep 3B (p53 partial deleted) and HL 60 (p53 null). […] The cells were rendered quiescent for 24 h, and then challenged with 10% FCS and treated with various concentrations of TB (60-150 μM) for additional 15 h. Protein extracts (100 μg/lane) were separated by SDS-PAGE, probed with specific antibodies, and detected using the NBT/BCIP system. Membranes were also probed with anti-GAPDH antibody to correct for differences in protein loading. As previously described (Chen R J, et. al., Toxicology & Applied Pharmacology 2000;169(2):132-41.), the frozen tumor was pulverized in liquid N2, and then mixed with lysis buffer (Tris-HCl 0.5 M, pH 6.8, SDS 0.4%). For cell cultures, the cells were seeded onto 150-mm dishes and grown in RPMI 1640 (for COLO 205, HT 29 and HL 60 cells) or MEM (for Hep 3B) supplemented with 10% FCS. After the cells had grown to subconfluence, they were rendered quiescent. The cells were released from quiescence with culture medium supplemented with 10% FCS. TB in 0.05% DMSO or 0.05% DMSO without TB was added to the cells at various concentrations and the mixture was allowed to incubate for 17 h. Western blot analysis was performed as previously described (Chen R J, et. al., Toxicology & Applied Pharmacology 2000;169(2):132-41; Lee W S, et. al., Circulation Research 1998;82(8):845-51.). Immunodetection was carried by probing with proper dilutions of specific antibodies at room temperature for 2 h. Anti-p21/Cip1, anti-p27/Kip1, anti-p53, anti-GAPDH monoclonal antibodies (Santa Cruz, Inc. CA); anti-cyclin B1, D1, and D3, anti-cdk2 and cdk4, and PCNA monclonal antibodies (Transduction Laboratories, Lexington, Ky.) were used at a concentration of 1:1,000 dilution. Anti-cyclin A and E polyclonal antibodies (Transduction, San Diego, Calif.) were used at a concentration of 1:250 dilution. […] Sigma Chemical Co., St. Louis, Mo.). In each experiment, membranes were also probed with anti-GAPDH antibody to correct for differences in protein loading.

[2] = system: cell cycle regulatory proteins in HL 60 cells; settings: TB 60-150 μM, 15 h
Description: as §1

[3] = system: cell cycle regulatory proteins in Hep 3B cells; settings: TB 60-150 μM, 15 h
Description: as §1

Structure (SMILES): CN(C/C=C/C#CC(C)(C)C)Cc1cccc2ccccc12 [TB, 1-Naphthalenemethanamine, N-(6,6-dimethyl-2-hepten-4-ynyl)-N-methyl-, (E)-]
- levels of cyclin D3 and cdk4, dose effect [1]: decreased
- levels of p53, p21/Cip1 and p27/Kip1 protein, dose effect [1]: increased
- levels of p53 and p21/Cip1 protein, dose effect [2]: did not change
- levels of p27/Kip1 protein, dose effect ([2]; dose-dependent): significantly increased
- levels of p53 and p21/Cip1 protein, dose effect [3]: did not change
- levels of p27/Kip1 protein, dose effect ([3]; dose-dependent): significantly increased
